Data from the supplement of paper PMC11061612.

How the values were obtained:
Assay in all cases: combination Emax (second highest fraction inhibited in the dose matrix, 72 h); higher = more inhibition; extreme values may be limits of the assay
BT-20 (Breast Carcinoma) = tested on: BT-20 (Breast Carcinoma)
In short: (§1)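 Cell lines in DMEM/F12 or RPMI with 10% FBS were plated in 1536-well plates, held 24 hours at 37°C, 5% CO2, then given two-drug dose matrices for 72 hours (DMSO typically 0.2%). Viability was read by CellTiter-Glo 2.0 luminescence and scaled as inhibition from 0 (vehicle wells) to 1 (blank wells). Combination Emax is the second-highest inhibition in the matrix; Bliss excess is observed combination effect minus expected EA + EB − EA·EB, EA and EB being single-agent effects.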

[1] = tested on: DG-75 (Burkitt's Lymphoma)
In short: as §1

[2] = tested on: EMC-BAC-2 (Non-Small Cell Lung Carcinoma)
In short: as §1

[3] = tested on: H-EMC-SS (Chondrosarcoma)
In short: as §1

[4] = tested on: HSC-2 (Oral Cavity Carcinoma)
In short: as §1

[5] = tested on: HuP-T3 (Pancreatic Carcinoma)
In short: as §1

IMR-5 (Neuroblastoma) = tested on: IMR-5 (Neuroblastoma)
In short: as §1

[6] = tested on: KLE (Endometrial Carcinoma)
In short: as §1

[7] = tested on: KP-2 (Pancreatic Carcinoma)
In short: as §1

[8] = tested on: KU-19-19 (Bladder Carcinoma)
In short: as §1

[9] = tested on: KYSE-50 (Esophageal Squamous Cell Carcinoma)
In short: as §1

NB7 (Neuroblastoma) = tested on: NB7 (Neuroblastoma)
In short: as §1

[10] = tested on: NCI-H1573 (Lung Adenocarcinoma)
In short: as §1

[11] = tested on: NCI-H2347 (Lung Adenocarcinoma)
In short: as §1

[12] = tested on: NCI-H2405 (Lung Adenocarcinoma)
In short: as §1

[13] = tested on: NCI-H513 (Other Solid Carcinomas)
In short: as §1

[14] = tested on: OCUB-M (Breast Carcinoma)
In short: as §1

[15] = tested on: SCC-3 (B-Cell Non-Hodgkin's Lymphoma)
In short: as §1

[16] = tested on: PFSK-1 (Other Solid Carcinomas)
In short: as §1

U-87-MG (Glioblastoma) = tested on: U-87-MG (Glioblastoma)
In short: as §1

SMILES | combination Emax (BT-20 (Breast Carcinoma)) | combination Emax [1] | combination Emax [2] | combination Emax [3] | combination Emax [4] | combination Emax [5] | combination Emax (IMR-5 (Neuroblastoma)) | combination Emax [6] | combination Emax [7] | combination Emax [8] | combination Emax [9] | combination Emax (NB7 (Neuroblastoma)) | combination Emax [10] | combination Emax [11] | combination Emax [12] | combination Emax [13] | combination Emax [14] | combination Emax [15] | combination Emax [16] | combination Emax (U-87-MG (Glioblastoma))
C[C@@H]1COCCN1c1cc(C2([S@](C)(=N)=O)CC2)nc(-c2ccnc3[nH]ccc23)n1 [AZD6738] + O=C(c1cc(Cc2n[nH]c(=O)c3ccccc23)ccc1F)N1CCN(C(=O)C2CC2)CC1 [Olaparib] (first compound max 10 µM, 7x7, partner max 10 µM) | 0.415 | 0.835 | 0.446 | 0.419 | 0.721 | 0.705 | 0.958 | 0.482 | 0.142 | 0.767 | 0.437 | 0.944 | 0.531 | 0.385 | 0.28 | 0.362 | 0.634 | 0.994 | – | –
CS(=O)(=O)CCNCc1ccc(-c2ccc3ncnc(Nc4ccc(OCc5cccc(F)c5)c(Cl)c4)c3c2)o1 [Lapatinib] + NC1(c2ccc(-c3nc4ccn5c(=O)[nH]nc5c4cc3-c3ccccc3)cc2)CCC1 [MK-2206] (first compound max 10 µM, 7x7, partner max 10 µM) | – | – | – | 0.316 | 0.987 | – | – | – | – | 0.837 | – | 0.821 | 0.723 | 0.188 | 0.113 | 0.386 | 1 | – | 0.942 | –
Cc1c2c(nn1C)CSCc1cc(n(C)n1)CSc1cc(c3ccccc3c1)OCCCc1c(C(=O)O)n(C)c3c-2c(Cl)ccc13 [AZD5991] + C=CCn1c(=O)c2cnc(Nc3ccc(N4CCN(C)CC4)cc3)nc2n1-c1cccc(C(C)(C)O)n1 [AZD1775] (first compound max 1 µM, partner max 1 µM) | 0.809 | 0.92 | 0.842 | 0.399 | 0.853 | 0.457 | 1 | 0.538 | – | 0.891 | 0.618 | 0.869 | 0.427 | 0.357 | 0.262 | 0.532 | 0.984 | 0.85 | 1 | 0.457
CCN(CCO)CCCOc1ccc2c(Nc3cc(CC(=O)Nc4cccc(F)c4)[nH]n3)ncnc2c1 [AZD2811] + C[C@@H]1COCCN1C2=NC(=NC(=C2)C3(CC3)[S@](=N)(=O)C)C4=C5C=CNC5=NC=C4 [AZD6738] (first compound max 1 µM, 7x7, partner max 10 µM) | 0.443 | 0.841 | 0.459 | 0.412 | 0.68 | 0.589 | 1 | 0.387 | 0.12 | 0.779 | 0.507 | 0.603 | 0.479 | 0.343 | 0.26 | 0.283 | 0.748 | 0.973 | – | –
CCN(CCO)CCCOc1ccc2c(Nc3cc(CC(=O)Nc4cccc(F)c4)[nH]n3)ncnc2c1 [AZD2811] + O=C(c1cc(Cc2n[nH]c(=O)c3ccccc23)ccc1F)N1CCN(C(=O)C2CC2)CC1 [Olaparib] (first compound max 1 µM, 7x7, partner max 10 µM) | 0.286 | 0.307 | 0.31 | 0.236 | 0.439 | 0.163 | 0.962 | 0.16 | 0.0558 | 0.381 | 0.282 | 0.473 | 0.152 | 0.186 | 0.234 | 0.0855 | 0.805 | 0.488 | – | –
CN(C)CCCOc1ccc(-c2ccc3ncc4c(c3c2)n(C2CCOCC2)c(=O)n4C)cn1 [AZD0156] + CCN(CCO)CCCOc1ccc2c(Nc3cc(CC(=O)Nc4cccc(F)c4)[nH]n3)ncnc2c1 [AZD2811] (first compound max 1 µM, 7x7, partner max 1 µM) | 0.198 | 0.365 | 0.253 | 0.367 | 0.289 | 0.0599 | 0.967 | 0.334 | 0.0724 | 0.349 | 0.204 | 0.276 | 0.106 | 0.148 | 0.106 | 0.136 | 0.727 | 0.445 | – | –
Cc1c2c(nn1C)CSCc1cc(n(C)n1)CSc1cc(c3ccccc3c1)OCCCc1c(C(=O)O)n(C)c3c-2c(Cl)ccc13 [AZD5991] + C1CN(CCC1(C(=O)N[C@@H](CCO)C2=CC=C(C=C2)Cl)N)C3=NC=NC4=C3C=CN4 [Capivasertib] (first compound max 1 µM, 7x7, partner max 3 µM) | 0.867 | 0.257 | 0.718 | 0.647 | 0.976 | 0.228 | 1 | 0.267 | 0.18 | 0.174 | 0.226 | 0.609 | 0.264 | 0.134 | 0.203 | – | 1 | 0.487 | 1 | 0.372
